Experimental data: patent US20230271983A1, “FUNCTIONALIZED ISONITRILES AND PRODUCTS, PREPARATION AND USES THEREOF” (UNIVERSIDADE DE SANTIAGO DE COMPOSTELA, priority 2020, published 2023)
pKi: −log10 of the molar value.

Columns and labels:
Dopamine D3 receptor = biological target: T1, Dopamine D3 receptor (Homo sapiens, UniProt P35462); assay: Dopamine D3 receptor competition binding, [3H]-Spiperone; conditions: 1 nM [3H]-Spiperone
T1 construct: purchased Perkin Elmer ES-173M400UA
Protocol: (§1) was evaluated in vitro using radioligand binding assays following a previously described protocol (J. Med. Chem., 2020, 63, 613-620, Eur. J. Med. Chem., 2019, 180, 673-689). Dopamine D2 receptor competition binding experiments were carried out in a polypropilene 96-well plate. In each well was incubated 10 μg of membranes from CHO-D2 #S20 cell line prepared in Biofarma laboratory (Lot: A002/22-07-2015, protein concentration=4185 μg/ml), 0.15 nM [3H]-Spiperone (80.2 Ci/mmol, 1 mCi/ml, Perkin Elmer NET1187001MC) and compounds studied and standard. Non-specific binding was determined in the presence of Sulpiride 10 μM (Sigma S112). The reaction mixture (Vt: 250 μl/well) was incubated at 25° C. for 120 min, 200 μL was transferred to GF/C 96-well plate (Millipore, Madrid, Spain) pretreated with 0.5% of PEI and treated with binding buffer (Tris-HCl 50 mM, EDTA 1 mM, MgCl2 5 mM, KCl 5 mM, NaCl 120 mM, pH=7.4), after was filtered and washed four times with 250 μl wash buffer (Tris-HCl 50 mM, NaCl 0.9%, pH=7.4), before measuring in a microplate beta scintillation counter (Microbeta Trilux, PerkinElmer). Dopamine D3 receptor competition binding experiments were carried out in a polypropilene 96-well plate. In each well was incubated 2 μg of membranes from D3 cell line (Perkin Elmer, ES-173M400UA, protein concentration=1000 μg/ml), 1 nM [3H]-Spiperone (68 Ci/mmol, 1 mCi/ml, Perkin Elmer NET1187001MC) and compounds studied and standard. Non-specific binding was determined in the presence of Haloperidol 1 μM (Sigma H1512). The reaction mixture (Vt: 250 μl/well) was incubated at 25° C. for 60 min, 200 μL was transferred to GF/C 96-well plate (Millipore, Madrid, Spain) pretreated with 0.5% of PEI and treated with binding buffer (Tris-HCl 50 mM, MgCl2 5 mM, pH=7.4), after was filtered and washed four times with 250 μl wash buffer (Tris-HCl 50 mM, pH=7.4), before measuring in a microplate beta scintillation counter (Microbeta Trilux, PerkinElmer, Madrid, Spain).

human A2BAR = biological target: T2, human A2BAR (Homo sapiens, UniProt P29275); assay: A2BAR radioligand competition binding, [3H]DPCPX, HEK-293 cell membranes; conditions: for inhibition at 1 µM: read-out: A2B specific binding inhibition percentage; for pKi: 25 nM [3H]DPCPX, 25° C. 30 min, read-out: A2B Ki
T2 construct: host or cells: HEK-293
T2 sequence (P29275 1-332): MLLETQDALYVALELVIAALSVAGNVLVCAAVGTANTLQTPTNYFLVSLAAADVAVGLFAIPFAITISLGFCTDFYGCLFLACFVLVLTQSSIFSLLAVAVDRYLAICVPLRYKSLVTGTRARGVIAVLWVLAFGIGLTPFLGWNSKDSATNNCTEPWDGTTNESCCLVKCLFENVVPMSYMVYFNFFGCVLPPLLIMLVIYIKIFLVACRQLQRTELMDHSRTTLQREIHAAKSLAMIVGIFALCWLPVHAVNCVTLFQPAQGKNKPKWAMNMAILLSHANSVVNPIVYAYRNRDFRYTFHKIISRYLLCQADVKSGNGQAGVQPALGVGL
Excerpt: (§2) was evaluate in vitro using radioligand binding assays following a previously described protocol (J. Med. Chem. 2019, 62, 9315-9330). Human ARs were expressed in transfected cell lines [e.g. chinese hamster ovary (CHO) cells (A1AR), human epithelial carcinoma (HeLa) cells (A2AAR and A3AR) and human embryonic kidney (HEK-293) cells (A2BAR)]. [^3H]DPCPX for A1AR and A2BAR, [^3H]NECA for A3AR, and [^3H]ZM241385 for A2AAR were employed as radioligands. […] Using Prism 5.0 software (GraphPad, San Diego, Calif.) K; values were acquired by fitting the data by non-linear regression. Results are the average of three experiments, each of them performed in duplicate. Radioligand binding competition assays were performed in vitro using human ARs expressed in transfected HeLa [hA2AAR (9 pmol/mg protein) and hA3AR (3 pmol/mg protein)], HEK-293 [hA2BAR (1.5 pmol/mg protein)] and CHO [hA1AR (1.5 pmol/mg protein)] cells. A brief description is given below. A1AR competition binding experiments were carried out in membranes from CHO-A, cells labelled with 1 nM [^3H]DPCPX (KD=0.7 nM). Non-specific binding was determined in the presence of 10 μM R-PIA. The reaction mixture was incubated at 25° C. for 60 min. A2AAR competition binding experiments were carried out in membranes from HeLa-A2A cells labelled with 3 nM [^3H]ZM241385 (KD=2 nM). Non-specific binding was determined in the presence of 50 μM NECA. The reaction mixture was incubated at 25° C. for 30 min. […] Non-specific binding was determined in the presence of 400 μM NECA. The reaction mixture was incubated at 25° C. for 30 min. A3AR competition binding experiments were carried out in membranes from HeLa-A3 cells labelled with 10 nM [^3H]NECA (KD=8.7 nM). Non-specific binding was determined in the presence of 100 μM R-PIA. The reaction mixture was incubated at 25° C. for 180 min. After the incubation time, membranes were washed and filtered, radioactivity was detected in a Microbeta Trilux reader (PerkinElmer).
(§3) The adenosinergic (affinity and selectivity) profile of several compounds of the invention was evaluated according to the above examples.

human A2AAR = biological target: T3, human A2AAR (Homo sapiens, UniProt P29274); assay: A2AAR radioligand competition binding, [3H]ZM241385, HeLa cell membranes; conditions: for inhibition at 1 µM: read-out: A2A specific binding inhibition percentage; for pKi: 3 nM [3H]ZM241385, 25° C. 30 min, read-out: A2A Ki
T3 construct: expressed in transfected cells; host or cells: HeLa
Excerpt: as §2, §3

human A3AR = biological target: T4, human A3AR (Homo sapiens, UniProt P0DMS8); assay: A3AR radioligand competition binding, [3H]NECA, HeLa cell membranes; conditions: for pKi: 10 nM [3H]NECA, 25° C. 180 min, read-out: A3 Ki; for inhibition at 1 µM: read-out: A3 specific binding inhibition percentage
T4 construct: expressed in transfected cells; host or cells: HeLa
T4 sequence (P0DMS8 1-318): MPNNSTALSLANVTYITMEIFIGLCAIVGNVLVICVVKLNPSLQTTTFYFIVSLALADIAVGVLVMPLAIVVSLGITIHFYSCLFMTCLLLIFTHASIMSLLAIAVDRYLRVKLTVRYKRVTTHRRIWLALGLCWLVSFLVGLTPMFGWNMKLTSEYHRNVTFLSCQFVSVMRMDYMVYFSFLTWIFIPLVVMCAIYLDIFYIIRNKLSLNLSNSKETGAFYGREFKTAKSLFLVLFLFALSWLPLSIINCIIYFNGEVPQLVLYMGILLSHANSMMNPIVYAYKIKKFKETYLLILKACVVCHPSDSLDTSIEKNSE
Excerpt: as §2, §3

Dopamine D2 receptor = biological target: T5, Dopamine D2 receptor (Homo sapiens, UniProt P14416); assay: Dopamine D2 receptor competition binding, [3H]-Spiperone, CHO-D2 membranes; conditions: 0.15 nM [3H]-Spiperone
T5 construct: expressed in transfected cells; host or cells: CHO-D2 #S20 (membranes prepared in Biofarma laboratory)
Protocol: as §1

human A1AR = biological target: T6, human A1AR (Homo sapiens, UniProt P30542); assay: A1AR radioligand competition binding, [3H]DPCPX, CHO cell membranes; conditions: for inhibition at 1 µM: read-out: A1 specific binding inhibition percentage; for pKi: 1 nM [3H]DPCPX, 25° C. 60 min, read-out: A1 Ki
T6 construct: expressed in transfected cells; host or cells: CHO
T6 sequence (P30542 1-326): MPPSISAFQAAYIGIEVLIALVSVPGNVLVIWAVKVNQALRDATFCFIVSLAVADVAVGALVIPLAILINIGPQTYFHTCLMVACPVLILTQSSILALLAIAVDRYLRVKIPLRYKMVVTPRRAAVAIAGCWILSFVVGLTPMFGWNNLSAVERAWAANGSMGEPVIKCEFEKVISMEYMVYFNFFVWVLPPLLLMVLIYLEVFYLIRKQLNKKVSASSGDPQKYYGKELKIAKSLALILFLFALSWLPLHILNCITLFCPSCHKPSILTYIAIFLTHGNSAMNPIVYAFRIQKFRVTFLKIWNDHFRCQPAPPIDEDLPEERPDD
Excerpt: as §2, §3

D4 = biological target: T7, D4 (Homo sapiens, UniProt P21917); assay: Dopamine D4 radioligand binding
T7 sequence (P21917 1-419): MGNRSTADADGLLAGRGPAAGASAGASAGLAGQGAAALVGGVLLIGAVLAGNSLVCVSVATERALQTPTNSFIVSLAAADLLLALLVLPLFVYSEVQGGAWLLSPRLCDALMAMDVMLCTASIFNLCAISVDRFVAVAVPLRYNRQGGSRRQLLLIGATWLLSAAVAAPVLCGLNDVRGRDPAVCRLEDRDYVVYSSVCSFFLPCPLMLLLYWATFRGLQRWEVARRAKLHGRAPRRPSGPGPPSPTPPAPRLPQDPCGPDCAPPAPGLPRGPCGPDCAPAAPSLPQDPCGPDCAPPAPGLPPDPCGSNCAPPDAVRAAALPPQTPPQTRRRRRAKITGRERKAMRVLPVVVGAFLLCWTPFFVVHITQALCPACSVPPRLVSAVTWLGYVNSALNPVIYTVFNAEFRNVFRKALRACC

T3 sequence (P29274 whole entry): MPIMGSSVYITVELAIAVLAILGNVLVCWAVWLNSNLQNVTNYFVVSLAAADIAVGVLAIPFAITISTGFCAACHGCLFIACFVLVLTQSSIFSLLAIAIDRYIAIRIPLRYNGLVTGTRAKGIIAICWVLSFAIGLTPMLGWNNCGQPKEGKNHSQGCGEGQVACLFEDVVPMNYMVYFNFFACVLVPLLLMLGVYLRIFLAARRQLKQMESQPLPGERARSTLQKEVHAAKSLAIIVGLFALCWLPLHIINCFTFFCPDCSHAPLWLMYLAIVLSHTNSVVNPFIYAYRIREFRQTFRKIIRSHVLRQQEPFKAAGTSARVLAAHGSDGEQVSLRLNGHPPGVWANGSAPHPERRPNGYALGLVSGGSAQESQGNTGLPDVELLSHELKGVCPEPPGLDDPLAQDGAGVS
T5 sequence (P14416 whole entry, species assumed): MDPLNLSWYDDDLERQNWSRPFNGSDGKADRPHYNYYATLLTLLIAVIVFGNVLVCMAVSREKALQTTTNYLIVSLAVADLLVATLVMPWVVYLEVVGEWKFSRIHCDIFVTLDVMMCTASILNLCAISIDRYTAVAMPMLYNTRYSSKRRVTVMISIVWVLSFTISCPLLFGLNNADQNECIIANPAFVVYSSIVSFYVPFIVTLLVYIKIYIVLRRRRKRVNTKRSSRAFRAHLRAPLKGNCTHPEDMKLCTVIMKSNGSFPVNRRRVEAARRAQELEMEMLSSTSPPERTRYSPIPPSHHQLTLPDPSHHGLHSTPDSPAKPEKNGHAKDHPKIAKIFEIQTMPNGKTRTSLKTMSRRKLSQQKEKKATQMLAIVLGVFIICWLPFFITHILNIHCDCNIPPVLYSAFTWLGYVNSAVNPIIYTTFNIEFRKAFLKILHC
T1 sequence (P35462 whole entry): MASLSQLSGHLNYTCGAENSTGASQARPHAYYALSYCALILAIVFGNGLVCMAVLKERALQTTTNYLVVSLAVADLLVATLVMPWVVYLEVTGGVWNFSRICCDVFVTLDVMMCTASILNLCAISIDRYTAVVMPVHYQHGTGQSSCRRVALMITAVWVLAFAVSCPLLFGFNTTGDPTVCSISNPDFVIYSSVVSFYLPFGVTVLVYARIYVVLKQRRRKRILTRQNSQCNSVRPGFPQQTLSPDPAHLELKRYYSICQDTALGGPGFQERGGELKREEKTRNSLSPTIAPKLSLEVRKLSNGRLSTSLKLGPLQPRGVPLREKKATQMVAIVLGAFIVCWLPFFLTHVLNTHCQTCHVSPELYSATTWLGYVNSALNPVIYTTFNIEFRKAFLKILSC

pKi (Dopamine D3 receptor) | inhibition at 1 µM (human A2AAR) | pKi (human A3AR) | pKi (Dopamine D2 receptor) | pKi (human A2BAR) | Compound | inhibition at 1 µM (human A2BAR) | inhibition at 1 µM (human A1AR) | inhibition at 1 µM (human A3AR) | other results
5.59 | 5% | 8.00 | 7.52 | – | COc1ccc(-c2cc(NC(=O)COCC(=O)N(C)CC(=O)NCCOCCOCCOCCOCCNC(=O)CN(C)C(=O)CCCOc3ccc(CN4CCN(c5ccccc5OC)CC4)cc3OC)nc(-c3ccc(OC)cc3)n2)cc1 | 4% | 8% | – | –
– | – | 8.21 | – | – | COc1ccc(-c2cc(NC(=O)CCC(=O)N(C)CC(=O)NCCCOCCOCCOCCCNC(=O)CN(C)C(=O)COc3ccc(-c4ccc5n4[B-](F)(F)[N+]4=C(c6cccs6)C=CC4=C5)cc3)nc(-c3ccc(OC)cc3)n2)cc1 | – | – | – | –
– | – | – | – | – | CN(CC(=O)NCCCOCCOCCOCCCNC(=O)CN(C)C(=O)CC(C)(C)CC(=O)Nc1c(F)cc(C(=O)Nc2nccs2)cc1F)C(=O)CCCCCN1/C(=C/C=C/C=C/C2=[N+](C)c3ccccc3C2(C)C)C(C)(C)c2ccccc21 | 18% | 31% | 37% | pKi (human A2AAR): 8.08
– | 13% | 6.71 | – | 7.10 | [C-]#[N+]CCCOCCOCCOCCCNC(=O)CN1CCN(C(=O)CNC(=O)COc2ccc(-c3cc4c([nH]3)c(=O)n(CCC)c(=O)n4C)cc2)CC1 | – | – | – | pKi (human A1AR): 7.00
9.00 | – | – | 8.96 | – | [C-]#[N+]CCCOCCOCCOCCCNC(=O)CN(C)C(=O)/C=C/c1ccc2sc(C(=O)NCCCCN3CCN(c4cccc(Cl)c4Cl)CC3)cc2c1 | – | – | – | pKi (D4): 6.30
– | 23% | 7.37 | – | 7.40 | CCCn1c(=O)c2[nH]c(-c3ccc(OCC(=O)NCC(=O)N4CCN(CC(=O)NCCCOCCOCCOCCCNC(=O)CN(C)C(=O)COc5ccc(C6=[N+]7C(=Cc8ccc(-c9cccs9)n8[B-]7(F)F)C=C6)cc5)CC4)cc3)cc2n(C)c1=O | – | – | – | pKi (human A1AR): 6.33
6.83 | – | – | 8.97 | – | CN(CC(=O)NCCCOCCOCCOCCCNC(=O)CN(C)C(=O)COc1ccc(-c2ccc3n2[B-](F)(F)[N+]2=C(c4cccs4)C=CC2=C3)cc1)C(=O)CCC(=O)Nc1ccc(CCN2CN(c3ccccc3)C3(CCN(CCCC(=O)c4ccc(F)cc4)CC3)C2=O)cc1 | – | – | – | –
– | – | – | – | – | CN(CC(=O)NCCOCCOCCNC(=O)CN(C)C(=O)CC(C)(C)CC(=O)Nc1c(F)cc(C(=O)Nc2nccs2)cc1F)C(=O)CCCCCN1/C(=C/C=C/C=C/C2=[N+](C)c3ccccc3C2(C)C)C(C)(C)c2ccccc21 | 59% | 33% | 54% | pKi (human A2AAR): 6.38

Compound | pKi (Dopamine D3 receptor) | inhibition at 1 µM (human A2AAR) | pKi (human A3AR) | pKi (Dopamine D2 receptor) | pKi (human A2BAR) | inhibition at 1 µM (human A2BAR) | inhibition at 1 µM (human A1AR) | inhibition at 1 µM (human A3AR) | other results
CCCn1c(=O)c2[nH]c(-c3ccc(OCC(=O)NCC(=O)N4CCN(C(C)(C)C(=O)NCCCOCCOCCOCCCNC(=O)CN(C)C(=O)COc5ccc(C6=[N+]7C(=Cc8ccc(-c9cccs9)n8[B-]7(F)F)C=C6)cc5)CC4)cc3)cc2n(C)c1=O | – | 1% | – | – | 6.60 | – | 46% | 37% | –
